Patent US20160374981A1, “ANORECTIC AGENT” (Nippon Suisan Kaisha, Ltd., priority 2012, published 2016)

Assays:
Assay type in all cases: in vivo
cholecystokinin (CCK) = assay: Blood cholecystokinin (CCK) level in SD rats after single oral dose (ELISA); details: male SD rats, versus control group (FIG. 13)
Description: (§1) Using a 1.5% (by weight) aqueous solution of a fatty acid ester of glycerol (RYOTO® POLYGLYESTER; product of Mitsubishi-Kagaku Foods Corporation) as a solvent, a free fatty acid form of palmitoleic acid (C16:1) and a free fatty acid form of oleic acid (C18:1), both being products of Sigma, were added to the solvent and uniformly emulsified by sonication in an ice bath to thereby prepare dosing samples.
(§2) Male Sprague-Dawley rats (hereinafter referred to as SD rats) were used in the test. Nine-week-old SD rats (Japan SLC, Inc.) were purchased and preliminarily reared for a week in individual cages. […]
(§3) After the preliminary rearing, the 10-week-old SD rats were divided into the following three groups (10 animals per group) considering their body weight: a control group administered with only the solvent (hereinafter referred to as “control group”); a group administered with palmitoleic acid (C16:1) (hereinafter “C16:1 administered group”); and a group administered with oleic acid (C18:1) (hereinafter “C18:1 administered group”); these groups of rats were subjected to the main test. […] With the level of gene expression in the control group taken as unity, the relative expression levels of respective genes in the C16:1 administered group or 18:1 administered group were calculated. […]

[1] = Long-term oral administration of free fatty acids to KKAy mice: food intake and body weight; details: male KKAy mice
Description: Using a 1.5% (by weight) aqueous solution of a fatty acid ester of glycerol (RYOTO®POLYGLYESTER; product of Mitsubishi-Kagaku Foods Corporation) as a solvent, a free fatty acid form of palmitoleic acid (C16:1), a free fatty acid form of palmitic acid (C16:0), a free fatty acid form of gadoleic acid (C20:1), and a free fatty acid form of erucic acid (C22:1), all being products of Sigma with purities of 99% and more, were added to the solvent and uniformly emulsified by sonication in an ice bath to thereby prepare dosing samples.
Male, spontaneously diabetic model mice KKAy/Ta (hereinafter referred to as KKAy mice) were used in the test. Five-week-old KKAy mice (CLEA Japan, Inc.) were purchased and preliminarily reared for a week in individual cages. During the preliminary rearing period, the animals were allowed free access to the solid feed Labo MR Stock (Nosan Corporation) and distilled water through water bottles.
After the preliminary rearing, the 6-week-old KKAy mice were divided into the following five groups (10 animals per group) considering their body weight: a control group administered with only the solvent (hereinafter referred to as “control group”); a group administered with palmitoleic acid (C16:1) (hereinafter “C16:1 administered group”); a group administered with palmitic acid (C16:0) (hereinafter “C16:0 administered group”); a group administered with gadoleic acid (C20:1) (hereinafter “C20:1 administered group”); and a group administered with erucic acid (C22:1) (hereinafter “C22:1 administered group”); these groups of mice were subjected to the main test. In the main test, the mice of each group were reared for 4 weeks under the environment of light (12 hr) and dark (12 hr) cycles as they were allowed free access to the powdered feed Labo MR Stock (Nosan Corporation) and distilled water through water bottles. In the process, the solvent or each fatty acid under test was orally administered through a gastric tube at 10 a.m. every day. […]
During the 4-week rearing period, the amount of food supplied was measured at days 1, 5, 9, 12, 16, 19, 23 and 26 after dosing and the amount of leftover was measured on the next day, with the respective measurements being conducted for each feeder. The amount of daily food intake was calculated from the difference between the values for two consecutive measurements. The “average food intake” is the average of the food intakes as measured on the respective days of measurement. […] The percent body weight gain was calculated by the formula [(final body weight−initial body weight)/initial body weight]×100. The “final body weight” is the body weight as measured after the end of the 4-week rearing period whereas “initial body weight” is the body weight as measured at the start of the test.

[2] = Single-dose oral administration of free fatty acids to SD rats: food intake; details: male SD rats
Description: as §1, with “(C16:1), a free fatty acid form of palmitic acid (C16:0),” for “(C16:1) and”, “a free fatty acid form of lauric acid (C12:0), a free fatty acid form of decenoic acid (C10:1), and a free fatty acid form of linoleic acid (C18:2), all” for “both”
Male Sprague-Dawley rats (hereinafter referred to as SD rats) were used in the experiment. Nine-week-old SD rats (Japan SLC, Inc.) were purchased and preliminarily reared for a week in individual cages. During the preliminary rearing period, the animals were allowed free access to the solid feed Labo MR Stock (Nosan Corporation) and distilled water through water bottles.
After the preliminary rearing, the 10-week-old SD rats were divided into the following seven groups (10 animals per group) considering their body weight: a control group administered with only the solvent (hereinafter referred to as “control group”); a group administered with palmitoleic acid (C16:1) (hereinafter “C16:1 administered group”); a group administered with palmitic acid (C16:0) (hereinafter “C16:0 administered group”); a group administered with oleic acid (C18:1) (hereinafter “C18:1 administered group”); a group administered with lauric acid (C12:0) (hereinafter “C12:0 administered group”); a group administered with decenoic acid (C10:1) (hereinafter “C10:1 administered group”); and a group administered with linoleic acid (C18:2) (hereinafter “C18:2 administered groups”); these groups of rats were subjected to the main test. In the main test, the solvent or each fatty acid under test was orally administered in a single dose through a gastric tube on the very day of the experiment. To the control group of SD rats, the solvent was orally administered at a dose of 10 mL/kg per animal. The test subjects, C16:1, C16:0, C18:1, C12:0, C10:1 and C18:2, each taken in an amount of 150 mg or 500 mg, were added to 10 mL of the solvent and emulsified; the emulsion was orally administered to the SD rats in a dose of 10 mL/kg per animal and a measurement was conducted both 30 minutes and an hour later. The amount of food intake (the amount of food supplied immediately after the dosing of sample minus the amount of food at a specified time after the dosing of sample) was measured both 30 minutes and an hour after oral administration of the test sample.

CCK mRNA = assay: Small intestine CCK mRNA expression level in SD rats after single oral dose (real-time PCR); details: male SD rats; an hour after single oral dose 500 mg/kg; versus control group (FIG. 14)
Description: as §1, §2, §3

[3] = an hour after single oral dose 150 or 500 mg/kg, comparison with other fatty acids, versus control group (FIG. 11)

In the case of `CCCCCCCC/C=C\CCCCCCCC(=O)O` [oleic acid, reference compound], the “blood CCK level” value (cholecystokinin (CCK); an hour after single oral dose 150 or 500 mg/kg) is reported as “no significant elevation”.
With `CCCCCC/C=C\CCCCCCCC(=O)O` [C16:1, palmitoleic acid] the food intake ([1]; 300 mg in 10 mL solvent, 10 mL/kg oral every day, 4 weeks, compared with control group (FIGS. 1 and 2)) was “significant drops in the food intake”, the “percent body weight gain” value ([1]; 4 weeks after administration, compared with control group (FIG. 4)) was “significant drop in the percent body weight gain” and the “daily averages for the amount of food intake” value ([1]; daily oral administration, 4 weeks, FIG. 2, P<0.05) was “significant drop in the amount of food intake”. For the same compound, the body weight ([1]; daily oral administration, second to fourth week of dosing, compared with control group (FIG. 3)) was “significant drop in body weight”, the food intake ([2]; 30 minutes after single oral dose 500 mg/kg, compared with control group and C16:0 administered group (FIGS. 5 and 6)) was “significant drop in food intake” and the food intake ([2]; 30 minutes after single oral dose 150 or 500 mg/kg, compared with control group and C18:1 administered group (FIGS. 8-9)) was “significant drops in food intake”. The food intake ([2]; an hour after single oral dose 500 mg/kg, compared with control group and C16:0 administered group (FIGS. 5 and 6)) was “significant drop in food intake”, the food intake ([2]; an hour after single oral dose 150 or 500 mg/kg, compared with control group and C18:1 administered group (FIGS. 8, 10)) was “significant drops in food intake” and the food intake [2, 3] was “significant drops in food intake”. For the same compound, the “blood CCK level” value (cholecystokinin (CCK); an hour after single oral dose 500 mg/kg) was “increased significantly” and the “small intestine CCK mRNA expression level” value (CCK mRNA) was “increased significantly”.
In the case of “decenoic acid [C10:1, reference compound]”, the food intake [2, 3] is reported as “no significant drops”.
For `CCCCCCCCCCCCCCCC(=O)O` [C16:0, palmitic acid, reference compound], the “food intake (test for dose-dependency)” value ([2]; 30 minutes after single oral dose 50, 150 or 500 mg/kg, compared with control group and C16:0 administered group (FIG. 7)) was “decreased significantly in a dose-dependent manner”.
With `CCCCC/C=C\C/C=C\CCCCCCCC(=O)O` [C18:2, linoleic acid, reference compound] the food intake [2, 3] was “no significant drops”.
In the case of `CCCCCCCCCCCC(=O)O` [C12:0, lauric acid, reference compound], the food intake [2, 3] is reported as “no significant drops”.
